Data published in patent publication US20090136578A1, “Pharmaceutical Composition Comprising Perindopril or Its Salts” (LEK Pharmaceutical d.d., priority 2005, published 2009).

Key:
Type in all cases: physicochemical
[1] = Stress stability of binary mixture perindopril erbumine:Avicel 1:2, HPLC degradation products; settings: binary mixture with Avicel 1:2
Protocol: (§1) For the comparative tests, samples of perindopril erbumine with different particle size were mixed with some common pharmaceutically acceptable excipients in binary or ternary mixtures. Pharmaceutical compositions, particularly tablets, with perindopril erbumine having different particle size were prepared as well. Binary and ternary mixtures and tablets were exposed to the stress condition, e.g. 60° C. for 14 days or 40° C./75% relative humidity for 1 month. Degradation products of perindopril were determined using HPLC method as described in European Pharmacopea 5.0 (January 2005, monograph for Perindopril tert-butylamine—pages 2210-2212).
(§2) Samples of perindopril erbumine having large or small particles were mixed with microcrystalline cellulose (Avicel) into the binary mixtures having a ratio perindopril erbumine:Avicel=1:2. Binary mixtures were closed into vials and exposed to the stress condition of 60° C. for 14 days. Degradation products (impurities B and F) of perindopril were determined using HPLC method as described in European Pharmacopea 5.0 (p. 2210-2212).

[2] = Stress stability of binary mixture perindopril erbumine:anhydrous lactose 1:2, HPLC degradation products; settings: binary mixture with anhydrous lactose 1:2
Protocol: as §1
as §2, with “anhydrous lactose” for “microcrystalline cellulose (Avicel)”, “erbumine:anhydrous lactose=1:2.” for “erbumine:Avicel=1:2.”

[3] = Stress stability of binary mixture perindopril erbumine:Aerosil 15:1, HPLC degradation products; settings: binary mixture with Aerosil 15:1
Protocol: as §1, with “month.” for “month. Degradation products of perindopril were determined using HPLC method as described in European Pharmacopea 5.0 (January 2005, monograph for Perindopril tert-butylamine—pages 2210-2212).”
Samples of perindopril erbumine having large or small particles were mixed with colloidal anhydrous silicon dioxide (Aerosil) into the binary mixtures having a ratio perindopril erbumine:Aerosil=15:1. Binary mixtures were closed into vials and exposed to the stress condition of 60° C. for 14 days.

[4] = Stress stability of ternary mixture perindopril erbumine:Avicel:Syloid 2:10:1, HPLC degradation products; settings: ternary mixture with Avicel and Syloid 2:10:1
Protocol: as §1, with “month.” for “month. Degradation products of perindopril were determined using HPLC method as described in European Pharmacopea 5.0 (January 2005, monograph for Perindopril tert-butylamine—pages 2210-2212).”
(§3) Samples of perindopril erbumine having large or small particles were mixed with microcrystalline cellulose (Avicel) and micronized silicon dioxide (Syloid) into the ternary mixtures having ratio perindopril erbumine:Avicel:Syloid=2:10:1. Ternary mixtures were exposed to the stress condition of 40° C./75% relative humidity for 1 month.

[5] = Stress stability of ternary mixture perindopril erbumine:anhydrous lactose:Syloid 2:10:1, HPLC degradation products; settings: ternary mixture with anhydrous lactose and Syloid 2:10:1
Protocol: as §1, with “month.” for “month. Degradation products of perindopril were determined using HPLC method as described in European Pharmacopea 5.0 (January 2005, monograph for Perindopril tert-butylamine—pages 2210-2212).”
as §3, with “anhydrous lactose” for “microcrystalline cellulose (Avicel)”, “erbumine:anhydrous lactose:Syloid=2:10:1.” for “erbumine:Avicel:Syloid=2:10:1.”

[6] = Stress stability of tablets of Example 6, HPLC degradation products
Protocol: as §1, with “month.” for “month. Degradation products of perindopril were determined using HPLC method as described in European Pharmacopea 5.0 (January 2005, monograph for Perindopril tert-butylamine—pages 2210-2212).”
Samples of perindopril erbumine having large or small particles were mixed with selected pharmaceutical excipients in stated ratio:
Mixture was homogenized and pressed into the tablets. The amount of the perindopril erbumine in the tablets was defined by the mass of the tablet. Tablet could contain 2, 4 or 8 mg of perindopril erbumine.
Tablets were exposed to the stress condition of 60° C. for 14 days and 40° C./75% relative humidity for 1 month.

[7] = Comparative stress tests of perindopril erbumine of different particle size with excipients; settings: in comparison to perindopril erbumine having small particles; regardless of excipients or testing conditions
Protocol: During the development of the stable pharmaceutical composition of perindopril erbumine comparative tests were performed to investigate effects of various pharmaceutically acceptable excipients e.g. fillers, disintegrants and glidants, and different particle size of perindopril erbumine on the stability of perindopril erbumine.
as §1, with “month.” for “month. Degradation products of perindopril were determined using HPLC method as described in European Pharmacopea 5.0 (January 2005, monograph for Perindopril tert-butylamine—pages 2210-2212).”

| impurity B ([1]; 60° C., 14 days) [%] | impurity F ([1]; 60° C., 14 days) [%] | sum of impurities ([1]; 60° C., 14 days) [%] | impurity B ([1]; beginning) [%] | impurity F ([1]; beginning) [%] | sum of impurities ([1]; beginning) [%] | impurity B ([2]; 60° C., 14 days) [%] | impurity F ([2]; 60° C., 14 days) [%] | sum of impurities ([2]; 60° C., 14 days) [%] | impurity B ([2]; beginning) [%] | impurity F ([2]; beginning) [%] | sum of impurities ([2]; beginning) [%] | impurity B ([3]; 60° C., 14 days) [%] | impurity F ([3]; 60° C., 14 days) [%] | sum of impurities ([3]; 60° C., 14 days) [%] | impurity B ([3]; beginning) [%] | impurity F ([3]; beginning) [%] | sum of impurities ([3]; beginning) [%] | impurity B ([4]; 40° C./75% RH, 1 month) [%] | impurity F ([4]; 40° C./75% RH, 1 month) [%] | SMILES | also measured |
| --- | --- | --- | --- | --- | --- | --- | --- | --- | --- | --- | --- | --- | --- | --- | --- | --- | --- | --- | --- | --- | --- |
| <0.05 | 0.74 | 0.81 | <0.05 | <0.05 | <0.05 | <0.05 | 0.77 | 0.88 | <0.05 | <0.05 | <0.05 | <0.05 | 0.80 | 0.80 | <0.05 | <0.05 | <0.05 | 0.14 | 0.17 | CCC[C@H](N[C@@H](C)C(=O)N1[C@H](C(=O)O)C[C@@H]2CCCC[C@@H]21)C(=O)OCC [perindopril erbumine - small particles, perindopril erbumine] | sum of impurities ([4]; 40° C./75% RH, 1 month): 0.36%; impurity B ([4]; beginning): <0.05%; impurity F ([4]; beginning): <0.05%; sum of impurities ([4]; beginning): 0.11%; impurity B ([5]; 40° C./75% RH, 1 month): 1.24%; impurity F ([5]; 40° C./75% RH, 1 month): 1.35%; sum of impurities ([5]; 40° C./75% RH, 1 month): 2.75%; impurity B ([5]; beginning): <0.05%; impurity F ([5]; beginning): <0.05%; sum of impurities ([5]; beginning): 0.10%; impurity B ([6]; 40° C./75% RH, 1 month): 0.09%; impurity F ([6]; 40° C./75% RH, 1 month): 0.51%; sum of impurities ([6]; 40° C./75% RH, 1 month): 0.65%; impurity B ([6]; 60° C., 14 days): 0.27%; impurity F ([6]; 60° C., 14 days): 0.96%; sum of impurities ([6]; 60° C., 14 days): 1.79%; impurity B ([6]; beginning): <0.05%; impurity F ([6]; beginning): <0.05%; sum of impurities ([6]; beginning): 0.05% |
| <0.05 | 0.07 | 0.07 | <0.05 | <0.05 | <0.05 | <0.05 | 0.13 | 0.13 | <0.05 | <0.05 | <0.05 | <0.05 | 0.08 | 0.08 | <0.05 | <0.05 | <0.05 | 0.05 | 0.18 | CCC[C@H](N[C@@H](C)C(=O)N1[C@H](C(=O)O)C[C@@H]2CCCC[C@@H]21)C(=O)OCC [perindopril erbumine - large particles, perindopril erbumine] | sum of impurities ([4]; 40° C./75% RH, 1 month): 0.29%; impurity B ([4]; beginning): <0.05%; impurity F ([4]; beginning): <0.05%; sum of impurities ([4]; beginning): 0.11%; impurity B ([5]; 40° C./75% RH, 1 month): 1.09%; impurity F ([5]; 40° C./75% RH, 1 month): 0.70%; sum of impurities ([5]; 40° C./75% RH, 1 month): 1.92%; impurity B ([5]; beginning): <0.05%; impurity F ([5]; beginning): <0.05%; sum of impurities ([5]; beginning): 0.10%; impurity B ([6]; 40° C./75% RH, 1 month): 0.13%; impurity F ([6]; 40° C./75% RH, 1 month): 0.28%; sum of impurities ([6]; 40° C./75% RH, 1 month): 0.41%; impurity B ([6]; 60° C., 14 days): 0.56%; impurity F ([6]; 60° C., 14 days): 0.63%; sum of impurities ([6]; 60° C., 14 days): 1.40%; impurity B ([6]; beginning): <0.05%; impurity F ([6]; beginning): 0.07%; sum of impurities ([6]; beginning): 0.07%; degradation of perindopril erbumine [7]: smaller |
